Among the data in US6884421B2, “Pharmaceutical composition for diabetic nephropathy” (Council of Scientific and Industrial Research, priority 2002, dated 2005) are GFR and Urinary protein values, retold here.

Marks after values point to notes of the source that are not given here.

Experiment [1] concerns diabetic rats. Nature of the experiment: Glomerular Filtration Rate from urinary and plasma creatinine in streptozotocin diabetic rats. Type of experiment: in vivo, Male Wistar rats. The conditions noted are these: end of fifth week, mean ±SEM. The text has this:
Urinary creatinine is estimated by alkaline picrate reagent method. […] The plasma is deproteinsed using tungstic acid prior to creatinine estimation.
The formula used is [formula]

The subject of experiment [2] is diabetic rats. Nature of the experiment: Urinary protein excretion by TCA precipitation method in streptozotocin diabetic rats. In kind it is in vivo, Male Wistar rats. The note with it: end of fifth week.
Procedure: Urinary protein is determined at the end of fifth week by TCA precipitation method and the absorbance is measured at 660 nm.
Diabetes is induced in Male Wistar rats weighing between 120 g using streptozotocin at 55 mg/kg body weight and the rats are fed with wheat bran (1 to 5%), guar gum (1 to 2.5%) and butyric acid in the range of 1, 2, 4, 6, 8 and 10 mg/kg body weight/day in drinking water. After 4 days measuring fasting blood glucose level in the plasma and urinary sugar levels assessed the diabetic status.
Diabetes is induced in Male Wistar rats weighing between 120 g using streptozotocin at 55 mg/kg body weight and the rats are fed with wheat bran (1 to 5%), guar gum (1 to 2.5%) and butyric acid in the range of 250, 500 and 750 mg/kg body weight/day in drinking water. After 4 days measuring fasting blood glucose level in the plasma and urinary sugar levels assessed the diabetic status.
Urinary protein is determined at the end of fifth week by TCA precipitation method and the absorbance is measured at 660 nm (Table 2).
[3] abbreviates: FFD-250: fibre fed (wheat bran, guar gum) diabetic rats, 250 mg butyric acid/kg body weight/day in drinking water.
[4] abbreviates: FFD-500: fibre fed (wheat bran, guar gum) diabetic rats, 500 mg butyric acid/kg body weight/day in drinking water.
[5] abbreviates: FFD-750: fibre fed (wheat bran, guar gum) diabetic rats, 750 mg butyric acid/kg body weight/day in drinking water.
Where [6] appears, read: SFD-250: starch fed diabetic rats, 250 mg butyric acid/kg body weight/day in drinking water.
Setting [7] is: SFD-500: starch fed diabetic rats, 500 mg butyric acid/kg body weight/day in drinking water.
Where [8] appears, read: SFD-750: starch fed diabetic rats, 750 mg butyric acid/kg body weight/day in drinking water.

As to `CCCC(=O)O` [butyric acid], the GFR is recorded as 10.56 ± 1.05^b mL/min with diabetic rats [1] (setting [3]); 9.23 ± 1.09^b mL/min in the experiment on diabetic rats [1] (setting [4]); 11.64 ± 1.27^b mL/min with diabetic rats [1] (setting [5]); 15.99 ± 1.30 mL/min in the experiment with diabetic rats [1] (setting [6]); 15.60 ± 1.21 mL/min with diabetic rats [1] (setting [7]); 15.23 ± 1.04 mL/min in the experiment on diabetic rats [1] (setting [8]). The Urinary protein with diabetic rats [2] (setting [3]) is recorded as 104.07 ± 11.31^b mg/24 h; in the experiment with diabetic rats [2] (setting [4]), 88.82 ± 9.82^b mg/24 h; with diabetic rats [2] (setting [5]), 90.37 ± 9.14^b mg/24 h; in the experiment on diabetic rats [2] (setting [6]) it was 126.77 ± 9.82 mg/24 h; in the experiment on diabetic rats [2] (setting [7]), 124.86 ± 6.81^b mg/24 h; in the experiment with diabetic rats [2] (setting [8]), 115.37 ± 10.91 mg/24 h.
